From patent publication US5440012A, “Calcitonin and method for the preparation and use thereof” (Sumitomo Metal Industries, Ltd., priority 1991, dated 1995)
Positions of bridges follow the written chain, without caps; N, C: chain ends. Residues, ends and D or L forms follow the SMILES beside them.

Columns and labels:
[1] = tested on: grown cartilage cell culture of rabbit costal cartilage; test: Alkaline phosphatase activity per protein in rabbit costal cartilage cell culture (chondrocyte differentiation); assay type: cell-based; conditions: 10 μl of 10^-12 mol/ml calcitonin solution added on fourth and sixth days, 9 days incubation; control about 88,150
Procedure: When their physiological activities on cartilage cells or chondrocytes were determined according to the technique of Bessey et al (J. Biol. Chem. 164: 321-329, 1964) and that of Lowry et al (J. Biol. Chem. 193: 265-275, 1951), a strong cell differentiation-promoting activity was noted. […]
After incubation for 9 days, the cell layer (1) was recovered and the alkaline phosphatase activity in each well was determined by the method of Bessey et al (J. Biol. Chem. 164: 321-329, 1946) using p-nitrophenylphosphoric acid as a substrate.
The amount of protein in each well was also determined by assaying the recovered cell layer (1) in accordance with the method of Lowry et al (J. Biol. Chem. 193: 265-275, 1951) using bovine serum albumin as a standard substance.
The value for alkaline phosphatase activity per unit weight of protein was calculated from the values for alkaline phosphatase activity and amount of protein determined as above. The calculated value of the control was about 88,150 nmol/30 min/mg-protein. […]

[2] = tested on: concentration of calcium in the serum; test: Blood calcium-decreasing activity in rats (serum calcium, parallel line assay); assay type: in vivo, Male Wistar rats
Procedure: The physiological activities of the pure naturally-occurring stingray calcitonin extracted from the ultimobranchial gland of a stingray and those of synthetic stingray calcitonin obtained in the above-described manner were determined according to the technique of Homma et al (J. Biochem. 100: 459-467, 1986).
Male Wistar rats weighing 90-110 grams (10 animals in each group) which had fasted for 24 hours prior to the experiment were intravenously injected with a standard solution of salmon calcitonin or eel calcitonin or a solution of the synthetic stingray calcitonin (produced in Example 2) each dissolved in an aqueous 0.9% sodium chloride solution (pH 4.6) containing 0.1% bovine serum albumin at a dose of 1 pmol or 10 pmol per animal. Exactly one hour after the administration, a blood sample was collected from the artery of each test animal and the concentration of calcium in the serum was determined by atomic absorption spectroscopy. Based on the values for serum calcium concentration in rats of the groups in which one of the standard solutions was administered at a dose of 1 pmol or 10 pmol per animal and those in rats of the group in which the stingray calcitonin of the present invention was administered at the same dose, the relative titer of the stingray calcitonin was determined by the standard statistical procedures for parallel line assays. […]

## CC[C@H](C)[C@H](NC(=O)[C@H](CC(N)=O)NC(=O)[C@H](CCC(N)=O)NC(=O)[C@H](CC(C)C)NC(=O)[C@H](CCCCN)NC(=O)[C@H](Cc1c[nH]cn1)NC(=O)[C@H](CC(C)C)NC(=O)[C@H](CCC(N)=O)NC(=O)[C@H](CCC(N)=O)NC(=O)[C@H](CO)NC(=O)[C@H](CC(C)C)NC(=O)[C@H](CCCCN)NC(=O)CNC(=O)[C@@H](NC(=O)[C@@H](NC(=O)[C@@H]1CSSC[C@H](N)C(=O)N[C@@H]([C@@H](C)O)C(=O)N[C@@H](CO)C(=O)N[C@@H](CC(C)C)C(=O)N[C@@H](CO)C(=O)N[C@@H]([C@@H](C)O)C(=O)N1)C(C)C)C(C)C)C(=O)N[C@@H](CCC(N)=O)C(=O)N[C@@H](CCCNC(=N)N)C(=O)N[C@H](C(=O)N[C@@H](CC(=O)O)C(=O)N[C@H](C(=O)NCC(=O)N[C@@H](C)C(=O)N[C@@H](C)C(=O)N[C@H](C(=O)N1CCC[C@H]1C(N)=O)[C@@H](C)O)C(C)C)[C@@H](C)O [calcitonin of the present invention] (H-CTSLSTCVVGKLSQQLHKLQNIQRTDVGAATP-NH2; disulfide 1-7)
[1]
  alkaline phosphatase activity per unit weight of protein: about 106,000 nmol/30 min/mg-protein
[2]; rats, intravenous, 1 pmol or 10 pmol per animal, serum calcium one hour after administration, salmon and eel calcitonin used as standard substances
  titer (blood calcium-decreasing activity): about 3770 IU/mg
[2]; technique of Homma et al
  blood calcium-decreasing activity (in words): strong blood calcium-decreasing activity
